Results from ChEMBL document CHEMBL1909046, “DrugMatrix in vitro pharmacology data”.
Where a SMILES comes first, the peptide text is derived from it. Bridges are numbered along the chain shown (N, C = ends). [ ]: non-standard residue; d: D form. The star is where a group is joined. Threoninol(2S,3R) = C[C@@H](O)[C@H](CO)N*

What was measured:
Cytochrome P450 2E1 = Cytochrome P450 2E1 (Homo sapiens, UniProt P05181); details: bti-tn-5b1-4; further: in other assays of this panel Not Active means under 50% inhibition at 10 µM
Cytochrome P450 2E1, sequence (P05181 whole entry): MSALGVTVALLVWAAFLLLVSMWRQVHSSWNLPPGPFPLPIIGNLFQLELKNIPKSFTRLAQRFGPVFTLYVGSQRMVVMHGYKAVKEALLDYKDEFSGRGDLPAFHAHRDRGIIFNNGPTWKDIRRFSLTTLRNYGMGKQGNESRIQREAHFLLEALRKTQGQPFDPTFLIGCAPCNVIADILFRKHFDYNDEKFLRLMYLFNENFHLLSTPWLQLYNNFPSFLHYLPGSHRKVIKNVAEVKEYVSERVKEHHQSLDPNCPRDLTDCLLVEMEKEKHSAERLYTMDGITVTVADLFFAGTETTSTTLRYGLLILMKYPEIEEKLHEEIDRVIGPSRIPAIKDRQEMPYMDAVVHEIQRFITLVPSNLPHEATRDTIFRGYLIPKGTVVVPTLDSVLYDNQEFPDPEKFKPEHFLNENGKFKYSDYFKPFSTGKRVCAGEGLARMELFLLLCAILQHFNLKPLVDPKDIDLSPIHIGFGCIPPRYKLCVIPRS

[1] = DRUGMATRIX: Phorbol Ester radioligand binding (ligand: [3H] PDBu); type: cell membranes, Mus musculus, ICR, Brain, Membrane; details: Not Active = under 50% inhibition at 10 µM
Estrogen receptor beta = Estrogen receptor beta (Homo sapiens, UniProt Q92731); details: sf9; further: in other assays of this panel Not Active means under 50% inhibition at 10 µM
Estrogen receptor beta, sequence (Q92731 whole entry): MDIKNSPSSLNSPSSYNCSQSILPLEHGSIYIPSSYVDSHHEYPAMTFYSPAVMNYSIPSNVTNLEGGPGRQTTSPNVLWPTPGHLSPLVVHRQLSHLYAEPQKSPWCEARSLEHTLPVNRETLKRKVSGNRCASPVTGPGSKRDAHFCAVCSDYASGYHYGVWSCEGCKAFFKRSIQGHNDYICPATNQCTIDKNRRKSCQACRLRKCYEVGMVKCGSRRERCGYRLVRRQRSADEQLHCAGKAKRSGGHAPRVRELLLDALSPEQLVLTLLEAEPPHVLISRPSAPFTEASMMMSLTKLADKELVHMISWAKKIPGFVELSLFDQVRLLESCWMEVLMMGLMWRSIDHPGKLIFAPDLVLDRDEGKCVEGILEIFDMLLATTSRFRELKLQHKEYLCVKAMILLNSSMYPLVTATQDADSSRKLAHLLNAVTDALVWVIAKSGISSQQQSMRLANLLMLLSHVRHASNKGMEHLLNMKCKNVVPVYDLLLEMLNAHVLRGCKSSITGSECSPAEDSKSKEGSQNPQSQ

[2] = DRUGMATRIX: Glutamate, NMDA, Agonism radioligand binding (ligand: [3H] CGP-39653); type: cell membranes, Rattus norvegicus, Wistar, Cerebral cortex, Membrane; details: Not Active = under 50% inhibition at 10 µM
[3] = target: T1, Nitric oxide synthase, inducible (Mus musculus, UniProt P29477); set-up: species or system Escherichia coli;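 further: inhibition of iNOS enzyme activity measured with L-arginine as substrate; in other assays of this panel Not Active means under 50% inhibition at 10 µM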
T1 sequence (P29477 whole entry): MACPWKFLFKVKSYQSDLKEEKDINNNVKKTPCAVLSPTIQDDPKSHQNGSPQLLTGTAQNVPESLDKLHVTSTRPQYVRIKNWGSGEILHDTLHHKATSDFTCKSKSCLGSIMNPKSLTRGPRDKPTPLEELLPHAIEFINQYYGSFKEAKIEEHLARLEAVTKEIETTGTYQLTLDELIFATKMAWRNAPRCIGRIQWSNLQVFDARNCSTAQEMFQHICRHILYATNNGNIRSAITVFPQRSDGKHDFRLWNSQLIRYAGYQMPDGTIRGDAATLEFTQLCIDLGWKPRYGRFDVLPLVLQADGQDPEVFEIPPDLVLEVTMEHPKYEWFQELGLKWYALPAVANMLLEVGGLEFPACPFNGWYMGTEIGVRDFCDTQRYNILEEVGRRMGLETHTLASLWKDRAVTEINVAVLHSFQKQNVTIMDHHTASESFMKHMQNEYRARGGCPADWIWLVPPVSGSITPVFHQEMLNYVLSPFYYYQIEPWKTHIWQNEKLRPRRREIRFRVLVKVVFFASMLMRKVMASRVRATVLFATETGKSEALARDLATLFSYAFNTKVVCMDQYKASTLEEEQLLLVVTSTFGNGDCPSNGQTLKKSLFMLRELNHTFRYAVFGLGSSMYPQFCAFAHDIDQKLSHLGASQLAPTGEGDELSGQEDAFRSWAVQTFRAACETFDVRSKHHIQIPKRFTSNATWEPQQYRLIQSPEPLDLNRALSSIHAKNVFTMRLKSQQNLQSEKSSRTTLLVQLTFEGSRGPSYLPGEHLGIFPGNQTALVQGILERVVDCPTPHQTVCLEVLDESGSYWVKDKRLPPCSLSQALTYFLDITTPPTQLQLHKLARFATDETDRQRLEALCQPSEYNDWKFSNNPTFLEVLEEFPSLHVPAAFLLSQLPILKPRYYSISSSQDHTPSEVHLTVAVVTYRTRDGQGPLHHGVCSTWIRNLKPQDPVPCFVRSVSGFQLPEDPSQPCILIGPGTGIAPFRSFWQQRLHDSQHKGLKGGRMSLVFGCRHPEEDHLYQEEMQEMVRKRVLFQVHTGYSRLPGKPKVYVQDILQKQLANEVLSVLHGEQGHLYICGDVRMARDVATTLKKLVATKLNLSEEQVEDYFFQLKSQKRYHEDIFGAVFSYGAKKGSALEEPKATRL

[4] = target: 5-hydroxytryptamine receptor 1B (Rattus norvegicus, UniProt P28564); type: cell membranes, Wistar, Cerebral cortex, Membrane; further: in other assays of this panel Not Active means under 50% inhibition at 10 µM
5-hydroxytryptamine receptor 1B, sequence (P28564 whole entry): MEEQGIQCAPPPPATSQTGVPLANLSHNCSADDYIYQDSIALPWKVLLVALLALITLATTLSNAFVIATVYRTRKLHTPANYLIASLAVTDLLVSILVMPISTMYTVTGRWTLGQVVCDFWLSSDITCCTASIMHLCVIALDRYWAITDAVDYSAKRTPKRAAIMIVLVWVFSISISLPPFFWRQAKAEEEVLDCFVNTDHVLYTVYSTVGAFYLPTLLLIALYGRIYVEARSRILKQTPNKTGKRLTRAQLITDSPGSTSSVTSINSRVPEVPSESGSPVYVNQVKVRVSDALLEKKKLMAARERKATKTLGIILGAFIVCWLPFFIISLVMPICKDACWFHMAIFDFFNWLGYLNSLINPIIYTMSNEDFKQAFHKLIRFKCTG

Substance-P receptor = Substance-P receptor (Homo sapiens, UniProt P25103); type: cell membranes, Membrane; details: cho; further: in other assays of this panel Not Active means under 50% inhibition at 10 µM
Substance-P receptor, sequence (P25103 whole entry): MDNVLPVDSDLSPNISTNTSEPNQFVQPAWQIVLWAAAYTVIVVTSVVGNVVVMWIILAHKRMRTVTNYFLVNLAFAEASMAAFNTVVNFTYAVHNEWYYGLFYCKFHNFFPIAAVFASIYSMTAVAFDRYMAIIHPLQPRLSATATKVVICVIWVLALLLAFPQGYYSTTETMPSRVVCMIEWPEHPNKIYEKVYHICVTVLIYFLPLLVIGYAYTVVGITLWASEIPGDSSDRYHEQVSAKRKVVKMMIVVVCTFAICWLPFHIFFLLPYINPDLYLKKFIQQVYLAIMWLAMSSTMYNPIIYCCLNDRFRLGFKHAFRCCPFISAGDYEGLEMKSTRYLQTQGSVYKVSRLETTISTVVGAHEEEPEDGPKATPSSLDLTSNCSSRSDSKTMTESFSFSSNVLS

[5] = target: Tyrosine-protein kinase Lck (Homo sapiens, UniProt P06239); test: DRUGMATRIX: Protein Tyrosine Kinase, LCK enzyme inhibition (substrate: Poly(Glu:Tyr)); type: cell-based, Insect cells; details: insect cells; Not Active = under 50% inhibition at 10 µM
Tyrosine-protein kinase Lck, sequence (P06239 whole entry): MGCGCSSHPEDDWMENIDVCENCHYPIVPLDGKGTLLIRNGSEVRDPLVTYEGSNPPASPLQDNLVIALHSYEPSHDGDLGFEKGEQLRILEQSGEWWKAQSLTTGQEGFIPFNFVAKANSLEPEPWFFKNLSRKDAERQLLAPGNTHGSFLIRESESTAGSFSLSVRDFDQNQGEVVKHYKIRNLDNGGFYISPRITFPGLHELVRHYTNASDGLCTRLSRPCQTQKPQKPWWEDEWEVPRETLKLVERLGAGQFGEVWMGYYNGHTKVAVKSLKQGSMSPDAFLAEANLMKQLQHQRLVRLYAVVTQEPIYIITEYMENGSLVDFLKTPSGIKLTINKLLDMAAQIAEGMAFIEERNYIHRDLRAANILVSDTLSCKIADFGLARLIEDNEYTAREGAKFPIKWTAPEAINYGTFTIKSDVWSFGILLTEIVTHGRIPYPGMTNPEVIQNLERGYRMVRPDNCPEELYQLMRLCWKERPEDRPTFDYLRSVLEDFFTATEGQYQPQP

COc1ccccc1C(=O)N1CCC(Cc2ccccc2)CC1
Not Active: IC50 (Cytochrome P450 2E1) | Ki (Cytochrome P450 2E1) | IC50 [1] | Ki [1] | IC50 (Estrogen receptor beta) | IC50 [2] | Ki [2] | IC50 [3] | IC50 [4] | IC50 (Substance-P receptor) | IC50 [5]

Cc1ccccc1C(=O)N1CCC(Cc2ccccc2)CC1
Not Active: IC50 (Cytochrome P450 2E1) | Ki (Cytochrome P450 2E1) | IC50 [1] | Ki [1] | IC50 (Estrogen receptor beta) | IC50 [2] | Ki [2] | IC50 [3] | IC50 [4] | IC50 (Substance-P receptor) | IC50 [5]

O=C1CC[C@H](N2C(=O)c3ccccc3C2=O)C(=O)N1
Not Active: IC50 (Cytochrome P450 2E1) | Ki (Cytochrome P450 2E1) | IC50 [1] | Ki [1] | IC50 (Estrogen receptor beta) | IC50 [2] | Ki [2] | IC50 [3] | IC50 [4] | IC50 (Substance-P receptor) | IC50 [5]

N=C(Nc1ccccc1)Nc1ccccc1
Not Active: IC50 (Cytochrome P450 2E1) | Ki (Cytochrome P450 2E1) | IC50 [1] | Ki [1] | IC50 (Estrogen receptor beta) | IC50 [2] | Ki [2] | IC50 [3] | IC50 [4] | IC50 (Substance-P receptor) | IC50 [5]

C[C@@H](O)[C@H](CO)NC(=O)[C@@H]1CSSC[C@H](NC(=O)[C@H](N)Cc2ccccc2)C(=O)N[C@@H](Cc2ccccc2)C(=O)N[C@H](Cc2c[nH]c3ccccc23)C(=O)N[C@@H](CCCCN)C(=O)N[C@@H]([C@@H](C)O)C(=O)N1 (H-[dF]CF[dW]KTC-{Threoninol(2S,3R)}; disulfide 2-7)
Not Active: IC50 (Cytochrome P450 2E1) | Ki (Cytochrome P450 2E1) | IC50 [1] | Ki [1] | IC50 (Estrogen receptor beta) | IC50 [2] | Ki [2] | IC50 [3] | IC50 [4] | IC50 (Substance-P receptor) | IC50 [5]

S=C=Nc1cccc2ccccc12 [1-NAPHTHYLISOTHIOCYANATE]
Not Active: IC50 (Cytochrome P450 2E1) | Ki (Cytochrome P450 2E1) | IC50 [1] | Ki [1] | IC50 (Estrogen receptor beta) | IC50 [2] | Ki [2] | IC50 [3] | IC50 [4] | IC50 (Substance-P receptor) | IC50 [5]

C[C@](O)(CS(=O)(=O)c1ccc(F)cc1)C(=O)Nc1ccc(C#N)c(C(F)(F)F)c1 [(R)-BICALUTAMIDE]
Not Active: IC50 (Cytochrome P450 2E1) | Ki (Cytochrome P450 2E1) | IC50 [1] | Ki [1] | IC50 (Estrogen receptor beta) | IC50 [2] | Ki [2] | IC50 [3] | IC50 [4] | IC50 (Substance-P receptor) | IC50 [5]

CCCC(=O)Nc1ccc(OCC(O)CNC(C)C)c(C(C)=O)c1 (configuration not stated) [ACEBUTOLOL]
Not Active: IC50 (Cytochrome P450 2E1) | Ki (Cytochrome P450 2E1) | IC50 [1] | Ki [1] | IC50 (Estrogen receptor beta) | IC50 [2] | Ki [2] | IC50 [3] | IC50 [4] | IC50 (Substance-P receptor) | IC50 [5]

CC(=O)Nc1ccc(O)cc1 [ACETAMINOPHEN]
Not Active: IC50 (Cytochrome P450 2E1) | Ki (Cytochrome P450 2E1) | IC50 [1] | Ki [1] | IC50 (Estrogen receptor beta) | IC50 [2] | Ki [2] | IC50 [3] | IC50 [4] | IC50 (Substance-P receptor) | IC50 [5]

COc1cc2c(c3oc(=O)c4c(c13)CCC4=O)[C@@H]1C=CO[C@@H]1O2 [AFLATOXIN]
Not Active: IC50 (Cytochrome P450 2E1) | Ki (Cytochrome P450 2E1) | IC50 [1] | Ki [1] | IC50 (Estrogen receptor beta) | Ki (Estrogen receptor beta) | IC50 [2] | Ki [2] | IC50 [3] | Ki [3] | IC50 [4] | Ki [4] | IC50 (Substance-P receptor) | Ki (Substance-P receptor) | IC50 [5] | Ki [5]

N=C(N)NC(=O)c1nc(Cl)c(N)nc1N [AMILORIDE]
Not Active: IC50 (Cytochrome P450 2E1) | Ki (Cytochrome P450 2E1) | IC50 [1] | Ki [1] | IC50 (Estrogen receptor beta) | IC50 [2] | Ki [2] | IC50 [3] | IC50 [4] | IC50 (Substance-P receptor) | IC50 [5]

Cc1cc(=O)n(-c2ccccc2)n1C [ANTIPYRINE]
Not Active: IC50 (Cytochrome P450 2E1) | Ki (Cytochrome P450 2E1) | IC50 [1] | Ki [1] | IC50 (Estrogen receptor beta) | IC50 [2] | Ki [2] | IC50 [3] | IC50 [4] | IC50 (Substance-P receptor) | IC50 [5]

CCOC(=O)[C@H](CCc1ccccc1)N[C@H]1CCc2ccccc2N(CC(=O)O)C1=O [BENAZEPRIL]
Not Active: IC50 (Cytochrome P450 2E1) | Ki (Cytochrome P450 2E1) | IC50 [1] | Ki [1] | IC50 (Estrogen receptor beta) | IC50 [2] | Ki [2] | IC50 [3] | IC50 [4] | IC50 (Substance-P receptor) | IC50 [5]

Nc1c(CC(=O)O)cccc1C(=O)c1ccc(Br)cc1 [BROMFENAC]
Not Active: IC50 (Cytochrome P450 2E1) | Ki (Cytochrome P450 2E1) | IC50 [1] | Ki [1] | IC50 (Estrogen receptor beta) | IC50 [2] | Ki [2] | IC50 [3] | IC50 [4] | IC50 (Substance-P receptor) | IC50 [5]

CCCCN1CCCCC1C(=O)Nc1c(C)cccc1C.Cl (configuration not stated) [BUPIVACAINE HYDROCHLORIDE]
Not Active: IC50 (Cytochrome P450 2E1) | Ki (Cytochrome P450 2E1) | IC50 [1] | Ki [1] | IC50 (Estrogen receptor beta) | IC50 [2] | Ki [2] | IC50 [3] | IC50 [4] | IC50 (Substance-P receptor) | IC50 [5]

O=NN(CCCl)C(=O)NCCCl [CARMUSTINE]
Not Active: IC50 [1] | Ki [1] | IC50 (Estrogen receptor beta) | IC50 [2] | Ki [2] | IC50 [3] | IC50 [4] | IC50 (Substance-P receptor) | IC50 [5]

CC1=C(C(=O)O)N2C(=O)[C@@H](NC(=O)[C@H](N)c3ccccc3)[C@H]2SC1 [CEPHALEXIN ANHYDROUS]
Not Active: IC50 (Cytochrome P450 2E1) | Ki (Cytochrome P450 2E1) | IC50 [1] | Ki [1] | IC50 (Estrogen receptor beta) | IC50 [2] | Ki [2] | IC50 [3] | IC50 [4] | IC50 (Substance-P receptor) | IC50 [5]

O=C(N[C@H](CO)[C@H](O)c1ccc([N+](=O)[O-])cc1)C(Cl)Cl [CHLORAMPHENICOL]
Not Active: IC50 [1] | Ki [1] | IC50 (Estrogen receptor beta) | IC50 [2] | Ki [2] | IC50 [3] | IC50 [4] | IC50 (Substance-P receptor) | IC50 [5]

ClC(Cl)Cl [CHLOROFORM]
Not Active: IC50 (Cytochrome P450 2E1) | Ki (Cytochrome P450 2E1) | IC50 [1] | Ki [1] | IC50 (Estrogen receptor beta) | IC50 [2] | Ki [2] | IC50 [3] | IC50 [4] | IC50 (Substance-P receptor) | IC50 [5]

C[C@@H]1C[C@@H]([C@H](O)CC2CC(=O)NC(=O)C2)C(=O)[C@@H](C)C1 [CYCLOHEXIMIDE]
Not Active: IC50 [1] | Ki [1] | IC50 (Estrogen receptor beta) | IC50 [2] | Ki [2] | IC50 [3] | IC50 [4] | IC50 (Substance-P receptor) | IC50 [5]

NC(=O)NO [HYDROXYUREA]
Not Active: IC50 [1] | Ki [1] | IC50 (Estrogen receptor beta) | IC50 [2] | Ki [2] | IC50 [3] | IC50 [4] | IC50 (Substance-P receptor) | IC50 [5]

CCn1cc(C(=O)O)c(=O)c2cc(F)c(N3CCN(C)CC3)cc21 [PEFLOXACIN]
Not Active: IC50 [1] | Ki [1] | IC50 (Estrogen receptor beta) | IC50 [2] | Ki [2] | IC50 [3] | IC50 [4] | IC50 (Substance-P receptor) | IC50 [5]
